Columns and labels:
[1] = target: T1, DYRK2 (Homo sapiens, UniProt Q92630); assay: biochemical; settings: read-out: % enzyme activity, 1 μM; Run 1, Run 2
T1 sequence (Q92630 1-601): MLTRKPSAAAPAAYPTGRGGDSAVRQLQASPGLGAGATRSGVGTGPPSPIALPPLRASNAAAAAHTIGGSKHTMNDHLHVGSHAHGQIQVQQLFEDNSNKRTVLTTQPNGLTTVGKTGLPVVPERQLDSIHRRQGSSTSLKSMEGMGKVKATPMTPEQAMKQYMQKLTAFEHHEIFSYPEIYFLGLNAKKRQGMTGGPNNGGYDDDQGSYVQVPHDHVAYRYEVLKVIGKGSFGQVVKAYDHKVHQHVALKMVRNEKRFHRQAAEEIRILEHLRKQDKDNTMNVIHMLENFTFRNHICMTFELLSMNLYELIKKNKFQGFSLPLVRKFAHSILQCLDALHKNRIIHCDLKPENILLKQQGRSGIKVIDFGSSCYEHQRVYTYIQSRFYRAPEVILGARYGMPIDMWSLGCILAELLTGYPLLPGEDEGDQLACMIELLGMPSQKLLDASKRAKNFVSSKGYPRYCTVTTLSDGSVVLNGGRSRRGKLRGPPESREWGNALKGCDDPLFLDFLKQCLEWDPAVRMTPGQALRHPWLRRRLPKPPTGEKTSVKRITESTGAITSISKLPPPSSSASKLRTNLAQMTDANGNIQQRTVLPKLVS

[2] = target: T2, PKG1a (Homo sapiens, UniProt Q13976); assay: biochemical; settings: read-out: % enzyme activity, 1 μM; Run 1, Run 2
T2 sequence (Q13976 1-671): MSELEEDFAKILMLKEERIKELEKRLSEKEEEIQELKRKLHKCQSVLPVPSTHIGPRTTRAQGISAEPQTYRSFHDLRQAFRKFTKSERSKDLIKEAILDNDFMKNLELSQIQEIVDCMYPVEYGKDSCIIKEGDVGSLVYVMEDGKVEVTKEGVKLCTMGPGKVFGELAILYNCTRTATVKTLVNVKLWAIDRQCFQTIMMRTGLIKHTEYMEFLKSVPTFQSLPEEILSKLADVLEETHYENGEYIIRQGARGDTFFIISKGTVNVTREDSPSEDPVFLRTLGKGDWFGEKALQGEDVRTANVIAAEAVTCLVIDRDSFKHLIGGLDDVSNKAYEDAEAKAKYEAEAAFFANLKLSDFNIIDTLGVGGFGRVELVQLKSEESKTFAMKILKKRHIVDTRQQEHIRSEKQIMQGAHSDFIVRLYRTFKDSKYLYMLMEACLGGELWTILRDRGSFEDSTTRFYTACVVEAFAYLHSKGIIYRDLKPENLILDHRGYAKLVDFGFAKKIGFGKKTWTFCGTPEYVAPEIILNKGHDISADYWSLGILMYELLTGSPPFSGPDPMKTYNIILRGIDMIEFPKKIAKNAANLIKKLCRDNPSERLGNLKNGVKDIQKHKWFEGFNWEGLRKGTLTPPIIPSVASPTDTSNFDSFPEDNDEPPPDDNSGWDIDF

[3] = target: MLCK/MYLK (Homo sapiens, UniProt Q15746); settings: 1 μM; Run 1, Run 2
Sequence of MLCK/MYLK (Q15746 whole entry): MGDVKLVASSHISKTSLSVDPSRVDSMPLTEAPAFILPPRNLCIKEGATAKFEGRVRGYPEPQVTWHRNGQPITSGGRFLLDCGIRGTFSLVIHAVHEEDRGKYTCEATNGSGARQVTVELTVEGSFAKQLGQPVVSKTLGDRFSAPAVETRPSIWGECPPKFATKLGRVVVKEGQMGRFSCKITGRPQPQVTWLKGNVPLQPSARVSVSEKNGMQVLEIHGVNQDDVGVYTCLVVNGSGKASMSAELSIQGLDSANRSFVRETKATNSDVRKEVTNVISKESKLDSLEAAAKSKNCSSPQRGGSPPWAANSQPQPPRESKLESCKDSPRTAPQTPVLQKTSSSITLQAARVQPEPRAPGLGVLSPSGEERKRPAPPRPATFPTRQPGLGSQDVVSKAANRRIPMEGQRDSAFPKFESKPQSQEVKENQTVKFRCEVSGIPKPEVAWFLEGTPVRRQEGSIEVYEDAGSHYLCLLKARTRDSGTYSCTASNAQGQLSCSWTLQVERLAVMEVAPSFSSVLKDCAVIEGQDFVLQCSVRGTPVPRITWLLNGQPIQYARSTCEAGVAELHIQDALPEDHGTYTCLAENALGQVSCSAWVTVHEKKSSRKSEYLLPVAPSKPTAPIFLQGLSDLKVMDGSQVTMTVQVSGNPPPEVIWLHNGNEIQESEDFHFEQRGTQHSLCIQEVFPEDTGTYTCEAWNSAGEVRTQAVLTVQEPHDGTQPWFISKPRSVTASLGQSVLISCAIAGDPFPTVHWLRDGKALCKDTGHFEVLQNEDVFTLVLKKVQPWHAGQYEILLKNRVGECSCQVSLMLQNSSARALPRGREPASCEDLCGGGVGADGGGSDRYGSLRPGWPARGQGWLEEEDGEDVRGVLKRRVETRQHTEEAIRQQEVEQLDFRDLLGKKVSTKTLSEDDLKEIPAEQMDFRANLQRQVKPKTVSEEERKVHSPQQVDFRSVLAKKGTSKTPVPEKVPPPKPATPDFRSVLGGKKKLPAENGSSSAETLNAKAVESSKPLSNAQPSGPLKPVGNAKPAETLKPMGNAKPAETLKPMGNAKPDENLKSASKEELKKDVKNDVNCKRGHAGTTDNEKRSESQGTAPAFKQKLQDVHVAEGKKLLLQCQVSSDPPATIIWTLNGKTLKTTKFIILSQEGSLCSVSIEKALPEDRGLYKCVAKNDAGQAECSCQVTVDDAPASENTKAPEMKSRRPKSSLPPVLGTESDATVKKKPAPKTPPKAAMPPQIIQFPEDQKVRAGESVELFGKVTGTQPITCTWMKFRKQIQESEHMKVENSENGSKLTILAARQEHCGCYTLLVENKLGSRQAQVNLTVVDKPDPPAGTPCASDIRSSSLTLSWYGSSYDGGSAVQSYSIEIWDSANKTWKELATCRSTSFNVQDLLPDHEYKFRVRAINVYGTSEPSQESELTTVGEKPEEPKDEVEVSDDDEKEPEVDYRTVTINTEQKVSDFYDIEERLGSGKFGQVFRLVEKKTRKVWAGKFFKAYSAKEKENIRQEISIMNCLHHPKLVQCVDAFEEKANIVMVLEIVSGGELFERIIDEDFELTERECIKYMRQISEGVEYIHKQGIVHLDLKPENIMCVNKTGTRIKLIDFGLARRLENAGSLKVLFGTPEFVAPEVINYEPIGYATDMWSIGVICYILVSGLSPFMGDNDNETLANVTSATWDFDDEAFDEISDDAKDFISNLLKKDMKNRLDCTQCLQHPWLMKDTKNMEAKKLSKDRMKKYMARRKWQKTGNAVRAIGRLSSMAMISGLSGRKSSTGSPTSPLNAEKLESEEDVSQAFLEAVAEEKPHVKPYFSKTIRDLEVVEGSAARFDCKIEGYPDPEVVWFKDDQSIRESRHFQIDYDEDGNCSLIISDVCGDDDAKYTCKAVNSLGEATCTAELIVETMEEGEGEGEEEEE

[4] = target: T3, CYP2C9 (Homo sapiens, UniProt P11712); assay: CYP inhibition assay; type: in vitro ADME; settings: human liver microsomes
T3 construct: tissue Corning 452117; host or cells: pooled human liver microsomes (UltraPool HLM 150, mixed gender)
T3 sequence (P11712 whole entry): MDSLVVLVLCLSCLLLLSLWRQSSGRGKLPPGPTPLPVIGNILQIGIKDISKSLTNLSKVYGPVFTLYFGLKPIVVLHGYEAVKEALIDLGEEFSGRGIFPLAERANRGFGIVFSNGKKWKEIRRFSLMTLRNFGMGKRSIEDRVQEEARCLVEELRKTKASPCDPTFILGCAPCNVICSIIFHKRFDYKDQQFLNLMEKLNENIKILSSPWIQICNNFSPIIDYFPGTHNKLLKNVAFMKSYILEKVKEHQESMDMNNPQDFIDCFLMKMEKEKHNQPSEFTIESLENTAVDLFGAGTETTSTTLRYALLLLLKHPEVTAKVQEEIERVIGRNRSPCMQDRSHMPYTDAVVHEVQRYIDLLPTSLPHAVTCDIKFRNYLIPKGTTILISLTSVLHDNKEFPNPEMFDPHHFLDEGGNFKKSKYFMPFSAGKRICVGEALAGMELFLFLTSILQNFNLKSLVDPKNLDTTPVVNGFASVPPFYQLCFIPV

[5] = target: PKCtheta (Homo sapiens, UniProt Q04759); settings: 1 μM; Run 1, Run 2
Sequence of PKCtheta (Q04759 whole entry): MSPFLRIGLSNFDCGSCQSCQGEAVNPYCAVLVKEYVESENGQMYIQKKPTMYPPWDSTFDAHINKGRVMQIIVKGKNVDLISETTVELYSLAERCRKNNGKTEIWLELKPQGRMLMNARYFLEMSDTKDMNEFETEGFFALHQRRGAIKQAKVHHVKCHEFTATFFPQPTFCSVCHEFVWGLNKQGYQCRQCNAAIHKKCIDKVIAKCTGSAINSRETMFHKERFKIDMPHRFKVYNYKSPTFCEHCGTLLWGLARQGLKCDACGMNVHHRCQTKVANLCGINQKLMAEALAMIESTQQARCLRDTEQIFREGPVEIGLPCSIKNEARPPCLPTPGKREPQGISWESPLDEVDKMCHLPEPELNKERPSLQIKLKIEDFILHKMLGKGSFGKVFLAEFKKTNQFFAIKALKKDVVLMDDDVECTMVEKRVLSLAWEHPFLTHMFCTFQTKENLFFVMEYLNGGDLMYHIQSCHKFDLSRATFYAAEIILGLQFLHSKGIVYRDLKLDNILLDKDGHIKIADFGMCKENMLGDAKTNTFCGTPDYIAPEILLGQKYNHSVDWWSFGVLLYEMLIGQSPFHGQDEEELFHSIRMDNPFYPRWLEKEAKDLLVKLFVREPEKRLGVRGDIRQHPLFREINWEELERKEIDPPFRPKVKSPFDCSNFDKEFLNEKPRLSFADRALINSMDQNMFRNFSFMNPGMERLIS

[6] = target: T4, NEK8 (Homo sapiens, UniProt Q86SG6); settings: 1 μM; Run 1, Run 2
T4 sequence (Q86SG6 1-692): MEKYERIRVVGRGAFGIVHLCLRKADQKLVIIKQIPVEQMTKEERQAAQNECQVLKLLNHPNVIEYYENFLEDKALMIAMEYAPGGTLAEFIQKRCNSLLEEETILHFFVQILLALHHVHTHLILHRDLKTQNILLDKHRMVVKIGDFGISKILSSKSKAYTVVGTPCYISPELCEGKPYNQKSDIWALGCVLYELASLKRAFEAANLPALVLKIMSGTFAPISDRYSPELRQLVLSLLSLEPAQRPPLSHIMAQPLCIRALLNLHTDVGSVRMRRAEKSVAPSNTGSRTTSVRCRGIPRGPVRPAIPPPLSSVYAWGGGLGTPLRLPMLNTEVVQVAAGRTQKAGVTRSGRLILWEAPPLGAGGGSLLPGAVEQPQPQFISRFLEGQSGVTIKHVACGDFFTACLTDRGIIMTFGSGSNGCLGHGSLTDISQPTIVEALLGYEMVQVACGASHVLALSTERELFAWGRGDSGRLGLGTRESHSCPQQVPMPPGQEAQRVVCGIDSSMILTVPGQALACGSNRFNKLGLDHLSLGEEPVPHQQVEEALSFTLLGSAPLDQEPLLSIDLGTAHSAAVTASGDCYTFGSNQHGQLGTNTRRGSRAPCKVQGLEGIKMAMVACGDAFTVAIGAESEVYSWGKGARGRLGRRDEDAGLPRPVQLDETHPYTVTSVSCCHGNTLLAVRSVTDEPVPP

[7] = target: NIM1 (Homo sapiens, UniProt Q8IY84); settings: 1 μM; Run 1, Run 2
Sequence of NIM1 (Q8IY84 whole entry): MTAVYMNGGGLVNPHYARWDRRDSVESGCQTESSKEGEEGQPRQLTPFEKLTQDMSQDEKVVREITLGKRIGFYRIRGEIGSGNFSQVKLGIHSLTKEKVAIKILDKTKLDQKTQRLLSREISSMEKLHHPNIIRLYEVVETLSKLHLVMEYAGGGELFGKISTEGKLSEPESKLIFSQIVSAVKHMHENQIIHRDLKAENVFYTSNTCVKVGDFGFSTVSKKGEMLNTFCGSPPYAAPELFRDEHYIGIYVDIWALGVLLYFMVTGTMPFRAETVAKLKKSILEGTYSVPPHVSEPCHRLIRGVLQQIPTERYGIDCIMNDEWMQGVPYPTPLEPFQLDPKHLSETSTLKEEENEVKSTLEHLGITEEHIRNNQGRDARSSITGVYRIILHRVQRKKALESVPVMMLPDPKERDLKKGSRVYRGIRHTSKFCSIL

SMILES	remaining activity at 1 µM [1]	remaining activity at 1 µM [2]	% enzyme activity [3]	IC50 [4]	% enzyme activity [5]	% enzyme activity [6]	% enzyme activity [7]
COc1cc(-c2cncc(-c3ccc(N4CCN(C)CC4)cc3)c2C)cc(F)c1C(N)=O [Compound 26a, 2-Fluoro-6-methoxy-4-(4-methyl-5-(4-(4-methylpiperazin-1-yl)phenyl)pyridin-3-yl)benzamide]	96.3%	97.9%	106.15%	> 50 µM	81.31%	98.06%	95.18%
COc1cc(-c2cncc(-c3ccc(N4C[C@@H](C)N(C)[C@@H](C)C4)cc3)c2C)cc(F)c1C(N)=O [Compound 26c, 2-Fluoro-6-methoxy-4-(4-methyl-5-(4-((3R,5S)-3,4,5-trimethylpiperazin-1-yl)phenyl)pyridin-3-yl)benzamide]	100%	102%	101.49%	> 50 µM	84.96%	106.54%	97.81%

Source: paper PMC8213057, “Targeting ALK2: An Open Science Approach to Developing Therapeutics for the Treatment of Diffuse Intrinsic Pontine Glioma” (Journal of Medicinal Chemistry, 2020)
